The test addresses T1, human TGR5 (h-TGR5) (Homo sapiens, UniProt Q8TDU6).
T1 construct: expressed in transfected cells
T1 sequence (Q8TDU6 1-330): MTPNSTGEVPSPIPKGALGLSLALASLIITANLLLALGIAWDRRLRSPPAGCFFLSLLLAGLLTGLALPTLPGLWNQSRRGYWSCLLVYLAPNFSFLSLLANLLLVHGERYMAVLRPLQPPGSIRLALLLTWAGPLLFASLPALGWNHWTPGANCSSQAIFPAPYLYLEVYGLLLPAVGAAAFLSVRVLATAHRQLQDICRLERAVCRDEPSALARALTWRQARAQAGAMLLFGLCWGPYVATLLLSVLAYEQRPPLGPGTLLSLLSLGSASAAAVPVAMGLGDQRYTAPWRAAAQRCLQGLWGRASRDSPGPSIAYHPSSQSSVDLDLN
The test is described as follows: TGR5/CRE-Luciferiase Assay (HEK 293 hTGR5/CRE-Luc cells). It is filed as cell-based. The settings on record: h-TGR5 CRE-Luc EC50, Table 1; read-out: CRE-Luc (EC50). The procedure, abridged:
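HEK293 cells stably carrying hTGR5 and a CRE-luciferase reporter were exposed to serially diluted compounds (diluted in DMEM with 5% DMSO) for 6 h. Cells were then lysed in luciferase buffer, luminescence was read, and EC50 values were derived from dose-response curves.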

For `CCN(CC)CCOc1ccc(CSc2ncc(C(C)(C)c3ccc(Cl)c(Cl)c3)n2-c2ccc(F)cc2)cc1S(N)(=O)=O` [5-[({5-[1-(3,4-dichlorophenyl)-1-methylethyl]-1-(4-fluorophenyl)-1H-imidazol-2-yl}thio)methyl]-2-{[2-(diethylamino)ethyl]oxy}benzenesulfonamide], the EC50 (in general, the midpoint of the concentration-response curve) was 0.1 to 1 µM. As for `CC(C)(c1ccc(Cl)c(Cl)c1)c1cnc(SCc2ccc(C(=N)N)c(Cl)c2)n1-c1ccc(F)cc1` [2-chloro-4-[({5-[1-(3,4-dichlorophenyl)-1-methylethyl]-1-(4-fluorophenyl)-1H-imidazol-2-yl}thio)methyl]benzenecarboximidamide], the EC50 lay within 1 to 10 µM. `CC(C)(C)OC(=O)N1CCC(OCc2ncc(C(C)(C)c3ccc(Cl)c(Cl)c3)n2-c2ccc(F)cc2)CC1` [1,1-dimethylethyl 4-[({5-[1-(3,4-dichlorophenyl)-1-methylethyl]-1-(4-fluorophenyl)-1H-imidazol-2-yl}methyl)oxy]piperidine-1-carboxylate]: the EC50 was 1 to 10 µM.

Regarding `CC(C)(c1ccc(Cl)c(Cl)c1)c1cnc(SCc2c(F)cccc2Cl)n1-c1ccc(Cl)cc1F` [1-(4-chloro-2-fluorophenyl)-2-{[(2-chloro-6-fluorophenyl)methyl]thio}-5-[1-(3,4-dichlorophenyl)-1-methylethyl]-1H-imidazole], the EC50 was in the range of 0.1 to 1 µM. Take `CC(C)(c1ccc2c(c1)OCCO2)c1cnc(SCc2c(F)cccc2Cl)n1-c1ccc(F)cc1` [2-{[(2-chloro-6-fluorophenyl)methyl]thio}-5-[1-(2,3-dihydro-1,4-benzodioxin-6-yl)-1-methylethyl]-1-(4-fluorophenyl)-1H-imidazole]: the EC50 is less than 0.1 µM.

In the case of `CC(C)(c1ccc(OCCO)cc1)c1cnc(SCc2c(F)cccc2Cl)n1-c1ccc(F)cc1` [2-[(4-{1-[2-{[(2-chloro-6-fluorophenyl)methyl]thio}-1-(4-fluorophenyl)-1H-imidazol-5-yl]-1-methylethyl}phenyl)oxy]ethanol], the EC50 lay within 0.1 to 1 µM. With `CC(C)(c1ccc2c(c1)OCO2)c1cnc(SCc2ccc(F)cc2Cl)n1-c1ccc(F)cc1` [5-[1-(1,3-benzodioxol-5-yl)-1-methylethyl]-2-{[(2-chloro-4-fluorophenyl)methyl]thio}-1-(4-fluorophenyl)-1H-imidazole] the figure was 0.1 to 1 µM; with `Fc1ccc(-n2c(C(F)(F)c3ccc(Cl)c(Cl)c3)cnc2SCc2c(F)cccc2Cl)cc1` [2-{[(2-chloro-6-fluorophenyl)methyl]thio}-5-[(3,4-dichlorophenyl)(difluoro)methyl]-1-(4-fluorophenyl)-1H-imidazole], 1 to 10 µM. Turning to `CC(C)(O)c1ccc(CSc2ncc(C(C)(C)c3ccc(Cl)c(Cl)c3)n2-c2ccc(F)cc2)c(Cl)c1` [2-{3-chloro-4-[({5-[1-(3,4-dichlorophenyl)-1-methylethyl]-1-(4-fluorophenyl)-1H-imidazol-2-yl}thio)methyl]phenyl}propan-2-ol], the half-maximal effective concentration (EC50) lay in the range of 0.1 to 1 µM.

As for `CC(C)(c1ccc(Cl)c(Cl)c1)c1cnc(SCc2ccc(Cl)c(C(=O)O)c2)n1-c1ccc(F)cc1` [2-chloro-5-[({5-[1-(3,4-dichlorophenyl)-1-methylethyl]-1-(4-fluorophenyl)-1H-imidazol-2-yl}thio)methyl]benzoic acid], the EC50 is 0.1 to 1 µM. With `CC(Sc1ccc(F)cc1Cl)c1ncc(C(C)(C)c2ccc(Cl)c(Cl)c2)n1-c1ccc(F)cc1` (centres unmarked) [2-{1-[(2-chloro-4-fluorophenyl)thio]ethyl}-5-[1-(3,4-dichlorophenyl)-1-methylethyl]-1-(4-fluorophenyl)-1H-imidazole] the figure was 1 to 10 µM; with `COc1ccc(C(C)(C)c2cnc(SCc3c(F)cccc3C(=O)O)n2-c2ccc(F)cc2)cc1OC` [2-({[5-{1-[3,4-bis(methyloxy)phenyl]-1-methylethyl}-1-(4-fluorophenyl)-1H-imidazol-2-yl]thio}methyl)-3-fluorobenzoic acid], 0.1 to 1 µM.

As for `CC(C)(c1ccc(Cl)c(Cl)c1)c1cnc(SCc2c(F)cccc2Cl)n1-c1ccc(Cl)c(F)c1` [1-(4-chloro-3-fluorophenyl)-2-{[(2-chloro-6-fluorophenyl)methyl]thio}-5-[1-(3,4-dichlorophenyl)-1-methylethyl]-1H-imidazole], the EC50 fell in the range of 0.1 to 1 µM. Under `CC(C)(c1ccc(Cl)c(Cl)c1)c1cnc(SCc2c(F)cccc2Cl)n1-c1ccc(F)c(Cl)c1` [1-(3-chloro-4-fluorophenyl)-2-{[(2-chloro-6-fluorophenyl)methyl]thio}-5-[1-(3,4-dichlorophenyl)-1-methylethyl]-1H-imidazole] stands less than 0.1 µM; under `CC(C)(c1ccc(F)c(F)c1)c1cnc(SCc2ccc(F)cc2Cl)n1-c1ccc(F)cc1` [2-{[(2-chloro-4-fluorophenyl)methyl]thio}-5-[1-(3,4-difluorophenyl)-1-methylethyl]-1-(4-fluorophenyl)-1H-imidazole], 0.1 to 1 µM. With `COc1ccc(C(C)(C)c2cnc(S(=O)(=O)CCc3ccc(F)c(Cl)c3)n2-c2ccc(F)cc2)cc1OC` [5-{1-[3,4-bis(methyloxy)phenyl]-1-methylethyl}-2-{[2-(3-chloro-4-fluorophenyl)ethyl]sulfonyl}-1-(4-fluorophenyl)-1H-imidazole] the figure was less than 0.1 µM.

`COc1ccc(C(C)(C)c2cnc(CNc3ccc(Cl)c(Cl)c3)n2-c2ccc(F)cc2)cc1OC` [N-{[5-{1-[3,4-bis(methyloxy)phenyl]-1-methylethyl}-1-(4-fluorophenyl)-1H-imidazol-2-yl]methyl}-3,4-dichloroaniline]: the concentration giving a half-maximal response (EC50) was less than 0.1 µM. Under `CC(C)(c1ccc(S(C)(=O)=O)cc1)c1cnc(SCc2c(F)cccc2Cl)n1-c1ccc(F)cc1` [2-{[(2-chloro-6-fluorophenyl)methyl]thio}-1-(4-fluorophenyl)-5-{1-methyl-1-[4-(methylsulfonyl)phenyl]ethyl}-1H-imidazole] stands 0.1 to 1 µM; under `CC(C)(c1ccc(Cl)c(Cl)c1)c1cnc(SCc2c(F)cccc2Cl)n1-c1ccc(Cl)cc1Cl` [2-{[(2-chloro-6-fluorophenyl)methyl]thio}-1-(2,4-dichlorophenyl)-5-[1-(3,4-dichlorophenyl)-1-methylethyl]-1H-imidazole], 1 to 10 µM; under `CC(C)(c1ccc(Cl)c(Cl)c1)c1cnc(SCc2c(F)cccc2Cl)n1CCO` [2-(2-{[(2-chloro-6-fluorophenyl)methyl]thio}-5-[1-(3,4-dichlorophenyl)-1-methylethyl]-1H-imidazol-1-yl)ethanol], 0.1 to 1 µM. On to `CC(C)(c1ccc(Cl)c(Cl)c1)c1cnc(SCc2c(F)cc(F)cc2F)n1-c1ccc(F)cc1` [5-[1-(3,4-dichlorophenyl)-1-methylethyl]-1-(4-fluorophenyl)-2-{[(2,4,6-trifluorophenyl)methyl]thio}-1H-imidazole], for which the EC50 is less than 0.1 µM. Under `CC(C)(c1ccc(Cl)c(Cl)c1)c1cnc(SCc2ccc(F)cc2Cl)n1-c1ccc(N2CCOCC2)cc1` [4-[4-(2-{[(2-chloro-4-fluorophenyl)methyl]thio}-5-[1-(3,4-dichlorophenyl)-1-methylethyl]-1H-imidazol-1-yl)phenyl]morpholine] stands 1 to 10 µM. Under `COc1ccc(-c2cnc(SCc3c(F)cccc3Cl)n2-c2ccc(F)cc2)cc1OC` [5-[3,4-bis(methyloxy)phenyl]-2-{[(2-chloro-6-fluorophenyl)methyl]thio}-1-(4-fluorophenyl)-1H-imidazole] stands 1 to 10 µM.

For the origin of these results see patent US8785488B2 (Exelixis Patent Company LLC, priority 2009, dated 2014).
